Where “and” joins values, the source holds several entries; their conditions need not be identical. Equal values may be shown once. Read-outs that look alike come from different tables or passages of the source.

Test in all cases: cell-based
The target in assay [1] is T1, hNav1.7 (Homo sapiens, UniProt Q15858).
Another assay concerns the target hNav1.5 (Homo sapiens, UniProt Q14524). Particulars: read-out: IC50 (μM) Nav1.5.
In assay [2] the target is T1, hNav1.7. The class given is cell-based. The note with it: read-out: PX hNav1.7 Tonic IC50.
Assay [3] deals with T2, hNav1.4 (Homo sapiens, UniProt P35499). The class given is cell-based. Particulars: for IC50: IonWorks Quattro, read-out: IC50 (μM) Nav1.4; for Nav1.4/Nav1.7: ratio of IonWorks Quattro IC50 values.
For the next assay, the target named is hNav1.3 (Homo sapiens, UniProt Q9NY46). Particulars: IonWorks Quattro, read-out: IC50 (μM) Nav1.3. Background: The patch-clamp technique gives a direct electrical read-out from membranes.
The target in assay [4] is T2, hNav1.4. The class given is cell-based. Particulars: Table 12; for IC50: PatchXpress, tonic block, read-out: PX hNav1.4 Tonic IC50; for Nav1.4/Nav1.7: ratio of PX tonic IC50 values.
In a further assay the target is hNav1.6 (Homo sapiens, UniProt Q9UQD0). The class given is cell-based. Particulars: Table 15; for Nav1.6/Nav1.7: ratio of PX tonic IC50 values; for IC50: read-out: PX hNav1.6 Tonic IC50.
The mark [5] stands for this setting: Table 12, PatchXpress, tonic block.

Chain of hNav1.3 (Q9NY46 whole entry): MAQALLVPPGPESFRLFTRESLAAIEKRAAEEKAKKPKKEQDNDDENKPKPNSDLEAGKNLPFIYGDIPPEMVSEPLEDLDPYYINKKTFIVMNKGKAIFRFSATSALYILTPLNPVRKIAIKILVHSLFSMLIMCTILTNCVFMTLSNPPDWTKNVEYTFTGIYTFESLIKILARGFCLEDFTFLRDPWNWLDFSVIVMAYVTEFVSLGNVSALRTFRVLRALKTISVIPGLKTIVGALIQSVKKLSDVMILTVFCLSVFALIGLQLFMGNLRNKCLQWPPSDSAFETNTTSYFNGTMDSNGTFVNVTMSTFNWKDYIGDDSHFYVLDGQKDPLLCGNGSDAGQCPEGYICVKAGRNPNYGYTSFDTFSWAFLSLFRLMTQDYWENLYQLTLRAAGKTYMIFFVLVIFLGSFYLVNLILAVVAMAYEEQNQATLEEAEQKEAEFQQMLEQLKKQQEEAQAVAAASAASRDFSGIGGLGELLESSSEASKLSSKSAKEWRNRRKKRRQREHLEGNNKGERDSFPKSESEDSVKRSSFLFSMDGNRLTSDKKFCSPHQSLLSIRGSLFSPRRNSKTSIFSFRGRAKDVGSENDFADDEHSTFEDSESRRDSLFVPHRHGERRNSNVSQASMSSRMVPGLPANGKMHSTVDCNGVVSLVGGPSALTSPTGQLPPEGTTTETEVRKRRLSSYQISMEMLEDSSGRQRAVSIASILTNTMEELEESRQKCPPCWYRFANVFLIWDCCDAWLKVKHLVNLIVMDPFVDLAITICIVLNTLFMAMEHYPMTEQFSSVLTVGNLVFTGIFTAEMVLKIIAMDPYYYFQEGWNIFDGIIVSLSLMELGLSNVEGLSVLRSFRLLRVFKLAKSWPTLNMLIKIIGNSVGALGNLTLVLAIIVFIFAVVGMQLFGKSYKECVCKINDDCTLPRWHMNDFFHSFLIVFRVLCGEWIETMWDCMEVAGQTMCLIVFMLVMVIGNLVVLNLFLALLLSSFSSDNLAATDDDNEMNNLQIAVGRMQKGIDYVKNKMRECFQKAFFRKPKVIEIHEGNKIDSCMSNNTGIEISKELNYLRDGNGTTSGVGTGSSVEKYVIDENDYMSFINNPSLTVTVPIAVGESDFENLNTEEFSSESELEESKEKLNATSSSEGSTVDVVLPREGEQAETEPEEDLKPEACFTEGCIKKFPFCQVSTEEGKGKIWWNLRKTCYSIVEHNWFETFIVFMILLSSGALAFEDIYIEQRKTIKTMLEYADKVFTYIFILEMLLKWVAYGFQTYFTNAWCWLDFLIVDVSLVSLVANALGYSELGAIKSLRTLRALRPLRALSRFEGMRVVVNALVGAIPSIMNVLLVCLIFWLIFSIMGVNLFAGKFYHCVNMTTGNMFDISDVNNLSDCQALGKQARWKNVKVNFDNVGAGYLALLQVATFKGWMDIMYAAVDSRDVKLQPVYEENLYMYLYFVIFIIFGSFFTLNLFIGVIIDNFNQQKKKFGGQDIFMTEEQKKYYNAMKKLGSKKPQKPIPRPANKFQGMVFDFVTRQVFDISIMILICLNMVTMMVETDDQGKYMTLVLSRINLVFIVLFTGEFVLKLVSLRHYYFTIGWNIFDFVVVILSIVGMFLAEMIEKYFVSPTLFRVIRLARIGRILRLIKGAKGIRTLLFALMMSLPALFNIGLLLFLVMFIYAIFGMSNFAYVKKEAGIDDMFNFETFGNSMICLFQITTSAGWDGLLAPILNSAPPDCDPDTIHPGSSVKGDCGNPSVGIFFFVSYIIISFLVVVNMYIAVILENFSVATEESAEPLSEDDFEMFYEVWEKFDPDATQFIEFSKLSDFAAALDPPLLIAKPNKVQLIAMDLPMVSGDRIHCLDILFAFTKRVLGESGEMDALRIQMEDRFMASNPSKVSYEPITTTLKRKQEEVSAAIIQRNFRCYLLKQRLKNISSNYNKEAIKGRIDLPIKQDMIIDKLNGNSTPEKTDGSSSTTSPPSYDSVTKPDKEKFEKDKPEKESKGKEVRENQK
T1 sequence (Q15858 whole entry): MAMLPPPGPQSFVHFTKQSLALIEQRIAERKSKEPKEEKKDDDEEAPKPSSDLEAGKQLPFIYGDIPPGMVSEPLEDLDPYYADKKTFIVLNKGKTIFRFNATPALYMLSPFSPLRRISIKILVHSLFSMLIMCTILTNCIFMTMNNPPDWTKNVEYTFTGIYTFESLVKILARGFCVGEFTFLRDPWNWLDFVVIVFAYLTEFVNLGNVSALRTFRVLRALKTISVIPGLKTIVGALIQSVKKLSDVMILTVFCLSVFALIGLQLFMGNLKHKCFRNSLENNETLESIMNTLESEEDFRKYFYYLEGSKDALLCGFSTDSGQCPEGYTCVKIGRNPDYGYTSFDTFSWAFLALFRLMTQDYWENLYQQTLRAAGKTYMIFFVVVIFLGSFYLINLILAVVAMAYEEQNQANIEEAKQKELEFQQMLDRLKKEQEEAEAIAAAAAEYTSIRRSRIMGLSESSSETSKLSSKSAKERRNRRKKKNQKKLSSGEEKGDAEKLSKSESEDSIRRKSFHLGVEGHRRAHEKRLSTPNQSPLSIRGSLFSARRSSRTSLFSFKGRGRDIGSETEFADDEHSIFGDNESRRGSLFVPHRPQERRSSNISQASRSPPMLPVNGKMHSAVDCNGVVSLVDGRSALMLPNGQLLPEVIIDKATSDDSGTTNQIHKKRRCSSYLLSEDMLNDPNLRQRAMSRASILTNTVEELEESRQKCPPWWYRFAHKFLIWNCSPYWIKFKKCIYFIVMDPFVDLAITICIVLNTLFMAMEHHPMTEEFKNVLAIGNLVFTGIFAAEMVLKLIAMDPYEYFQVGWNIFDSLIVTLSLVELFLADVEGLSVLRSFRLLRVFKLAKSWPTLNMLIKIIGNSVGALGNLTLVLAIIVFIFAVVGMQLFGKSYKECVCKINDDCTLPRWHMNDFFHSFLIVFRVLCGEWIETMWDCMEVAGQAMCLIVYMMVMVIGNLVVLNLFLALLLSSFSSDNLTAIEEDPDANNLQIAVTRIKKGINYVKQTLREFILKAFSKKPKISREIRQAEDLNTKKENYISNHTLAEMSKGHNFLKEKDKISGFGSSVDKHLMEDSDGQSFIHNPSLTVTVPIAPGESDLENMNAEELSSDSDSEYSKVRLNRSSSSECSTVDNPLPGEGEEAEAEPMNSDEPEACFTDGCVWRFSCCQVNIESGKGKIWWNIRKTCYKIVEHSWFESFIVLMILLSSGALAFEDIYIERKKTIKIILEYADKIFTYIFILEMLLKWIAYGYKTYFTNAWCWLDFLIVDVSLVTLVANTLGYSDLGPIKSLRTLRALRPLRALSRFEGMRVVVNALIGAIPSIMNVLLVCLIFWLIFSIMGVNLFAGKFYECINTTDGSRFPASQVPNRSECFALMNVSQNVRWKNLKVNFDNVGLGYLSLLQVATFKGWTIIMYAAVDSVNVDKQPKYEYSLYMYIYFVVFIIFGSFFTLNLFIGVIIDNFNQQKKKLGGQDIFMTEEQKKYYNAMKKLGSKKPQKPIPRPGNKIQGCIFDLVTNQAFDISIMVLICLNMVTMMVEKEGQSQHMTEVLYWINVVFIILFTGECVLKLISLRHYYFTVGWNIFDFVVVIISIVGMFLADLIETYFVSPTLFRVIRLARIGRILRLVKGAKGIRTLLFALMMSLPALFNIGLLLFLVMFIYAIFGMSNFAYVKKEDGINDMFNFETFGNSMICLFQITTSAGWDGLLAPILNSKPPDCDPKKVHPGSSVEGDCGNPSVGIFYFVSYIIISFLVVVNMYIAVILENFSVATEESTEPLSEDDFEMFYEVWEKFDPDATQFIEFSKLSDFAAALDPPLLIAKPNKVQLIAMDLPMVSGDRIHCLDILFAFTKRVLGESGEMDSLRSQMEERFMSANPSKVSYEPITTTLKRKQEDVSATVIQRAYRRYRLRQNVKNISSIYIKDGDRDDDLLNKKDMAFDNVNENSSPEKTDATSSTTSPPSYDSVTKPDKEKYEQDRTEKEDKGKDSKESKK

As to `CC[C@H](C)[C@H](NC(=O)[C@@H](NC(=O)[C@H](CCCCN)NC(=O)[C@H](CCCNC(=N)N)NC(=O)[C@@H]1CSSC[C@@H]2NC(=O)[C@H](C)NC(=O)[C@H](CCCNC(=N)N)NC(=O)[C@H](CCCCN)NC(=O)[C@H](CO)NC(=O)[C@H](CC(=O)O)NC(=O)[C@@H]3CSSC[C@H](NC(=O)[C@H](CCCNC(=N)N)NC(=O)[C@H](CC(C)C)NC(=O)CNC(=O)[C@H](CCC(=O)O)NC(=O)[C@H](CSSC[C@H](NC(=O)[C@@H](N)Cc4ccc(O)cc4)C(=O)N[C@@H](CCC(N)=O)C(=O)N[C@@H](CCCCN)C(=O)N[C@@H](Cc4c[nH]c5ccccc45)C(=O)N[C@@H](CCSC)C(=O)N[C@@H](Cc4c[nH]c5ccccc45)C(=O)N[C@@H]([C@@H](C)O)C(=O)N3)NC2=O)C(=O)N[C@@H](CCCCN)C(=O)N[C@@H](CC(C)C)C(=O)N[C@@H](Cc2c[nH]c3ccccc23)C(=O)N1)[C@@H](C)CC)C(=O)O` [compound 1], the 50% inhibitory concentration (IC50) (in general, the concentration needed to halve the response being measured) was 0.17 µM on hNav1.7 [1] (read-out: IC50 (μM) Nav1.7); over 5 µM on hNav1.5 (IonWorks Quattro, Table 6); 13.1 nM at hNav1.7 [2] (PatchXpress, tonic, Table 11).

On to `CC[C@H](C)[C@H](NC(=O)[C@H](CCCNC(=N)N)NC(=O)[C@H](CCCCN)NC(=O)[C@H](CCCNC(=N)N)NC(=O)[C@@H]1CSSC[C@@H]2NC(=O)[C@H](C)NC(=O)[C@H](CCCNC(=N)N)NC(=O)[C@H](CCCCN)NC(=O)[C@H](CO)NC(=O)[C@H](CC(=O)O)NC(=O)[C@@H]3CSSC[C@H](NC(=O)[C@H](CCCNC(=N)N)NC(=O)[C@H](CC(C)C)NC(=O)CNC(=O)[C@H](CCC(=O)O)NC(=O)[C@H](CSSC[C@H](NC(=O)[C@@H](N)Cc4ccc(O)cc4)C(=O)N[C@@H](CCC(N)=O)C(=O)N[C@@H](CCCCN)C(=O)N[C@@H](Cc4c[nH]c5ccccc45)C(=O)N[C@@H](CCSC)C(=O)N[C@@H](Cc4c[nH]c5ccccc45)C(=O)N[C@@H]([C@@H](C)O)C(=O)N3)NC2=O)C(=O)N[C@@H](CCCCN)C(=O)N[C@@H](CC(C)C)C(=O)N[C@@H](Cc2c[nH]c3ccccc23)C(=O)N1)C(N)=O` [compound 108], for which the IC50 at hNav1.4 [3] (Table 6) worked out at 0.14 µM; at hNav1.3 (Table 6) it was 0.06 µM; at hNav1.5 (IonWorks Quattro, Table 6) it was 1.8 µM.

Turning to `CC[C@H](C)[C@H](NC(=O)CNC(=O)[C@H](CCCCN)NC(=O)[C@H](CCCNC(=N)N)NC(=O)[C@@H]1CSSC[C@@H]2NC(=O)[C@H](C)NC(=O)[C@H](CCCNC(=N)N)NC(=O)[C@H](CCCCN)NC(=O)[C@H](CO)NC(=O)[C@H](CC(=O)O)NC(=O)[C@@H]3CSSC[C@H](NC(=O)[C@H](CCC(=O)O)NC(=O)[C@H](CC(C)C)NC(=O)CNC(=O)[C@H](CCC(=O)O)NC(=O)[C@H](CSSC[C@H](NC(=O)[C@@H](N)Cc4ccc(O)cc4)C(=O)N[C@@H](CCC(N)=O)C(=O)N[C@@H](CCCCN)C(=O)N[C@@H](Cc4c[nH]c5ccccc45)C(=O)N[C@@H](CCSC)C(=O)N[C@@H](Cc4c[nH]c5ccccc45)C(=O)N[C@@H]([C@@H](C)O)C(=O)N3)NC2=O)C(=O)N[C@@H](CCCCN)C(=O)N[C@@H](CC(C)C)C(=O)N[C@@H](Cc2c[nH]c3ccccc23)C(=O)N1)C(N)=O` [compound 134], on hNav1.7 [1] (ratio of IonWorks Quattro IC50 values, Nav1.4 over Nav1.7), the Nav1.4/Nav1.7 was 17 and 13. In addition, the IC50 at hNav1.5 turned out to be 11.1 µM.

For `CC[C@H](C)[C@H](NC(=O)[C@@H](NC(=O)[C@H](CCCCN)NC(=O)[C@H](CCCNC(=N)N)NC(=O)[C@@H]1CSSC[C@@H]2NC(=O)[C@H](C)NC(=O)[C@H](CCCNC(=N)N)NC(=O)[C@H](CCCCN)NC(=O)[C@H](CO)NC(=O)[C@H](CC(=O)O)NC(=O)[C@@H]3CSSC[C@H](NC(=O)[C@H](CCC(=O)O)NC(=O)[C@H](CC(C)C)NC(=O)CNC(=O)[C@H](CCC(=O)O)NC(=O)[C@H](CSSC[C@H](NC(=O)[C@@H](N)Cc4ccc(O)cc4)C(=O)N[C@@H](CCC(N)=O)C(=O)N[C@@H](CCCCN)C(=O)N[C@@H](Cc4c[nH]c5ccccc45)C(=O)N[C@@H](CCSC)C(=O)N[C@@H](Cc4c[nH]c5ccccc45)C(=O)N[C@@H](Cc4cn(CCCOCCOCCOCCOCCOCCOCCOCCOCCOCCOCCN)nn4)C(=O)N3)NC2=O)C(=O)N[C@@H](CCCCN)C(=O)N[C@@H](CC(C)C)C(=O)N[C@@H](Cc2c[nH]c3ccccc23)C(=O)N1)[C@@H](C)CC)C(N)=O` [compound 171], the IC50 at hNav1.4 [3] (Table 9) is over 5 µM; at hNav1.3 (Table 9), over 5 µM; at hNav1.5 (IonWorks Quattro, Table 9) it was 18.7 µM. In addition, the Nav1.4/Nav1.7 on hNav1.4 [3] (Table 9) is 1.

Consider `CC[C@H](C)[C@H](NC(=O)[C@H](CCCCN)NC(=O)[C@H](CCCNC(=N)N)NC(=O)[C@@H]1CSSC[C@@H]2NC(=O)[C@H](C)NC(=O)[C@H](CCCNC(=N)N)NC(=O)[C@H](CCCCN)NC(=O)[C@H](CO)NC(=O)[C@H](CC(=O)O)NC(=O)[C@@H]3CSSC[C@H](NC(=O)[C@H](CCC(=O)O)NC(=O)[C@H](CC(C)C)NC(=O)CNC(=O)[C@H](CCC(=O)O)NC(=O)[C@H](CSSC[C@H](NC(=O)[C@@H](N)Cc4ccc(O)cc4)C(=O)N[C@@H](CCC(N)=O)C(=O)N[C@@H](CCCCN)C(=O)N[C@@H](Cc4c[nH]c5ccccc45)C(=O)N[C@@H](CCSC)C(=O)N[C@@H](Cc4c[nH]c5ccccc45)C(=O)N[C@@H]([C@@H](C)O)C(=O)N3)NC2=O)C(=O)N[C@@H](CCCCN)C(=O)N[C@@H](CC(C)C)C(=O)N[C@@H](Cc2c[nH]c3ccccc23)C(=O)N1)C(=O)N[C@@H](Cc1cn(CCCOCCOCCOCCOCCOCCOCCOCCOCCOCCOCCN)nn1)C(N)=O` [compound 188], for which the IC50 was over 5 µM on hNav1.4 [3] (Table 9); over 5 µM on hNav1.3 (Table 9); 20.1 µM on hNav1.5 (IonWorks Quattro, Table 9). Moreover, on hNav1.4 [3] (Table 9), the Nav1.4/Nav1.7 is recorded as 1.

As to `C#CC[C@H](NC(=O)[C@@H](N)CCC(=O)O)C(=O)N[C@H]1CSSC[C@@H]2NC(=O)[C@@H]3CSSC[C@@H](C(=O)N[C@@H](CCCNC(=N)N)C(=O)N[C@@H](CCCCN)C(=O)N[C@@H](CCC(=O)O)C(=O)N[C@H](C(N)=O)[C@@H](C)CC)NC(=O)[C@H](Cc4c[nH]c5ccccc45)NC(=O)[C@H](CC(C)C)NC(=O)[C@H](CCCCN)NC(=O)[C@H](CSSC[C@H](NC(=O)[C@H]([C@@H](C)O)NC(=O)[C@H](Cc4c[nH]c5ccccc45)NC(=O)[C@H](CCCC)NC(=O)[C@H](Cc4c[nH]c5ccccc45)NC(=O)[C@H](CCCCN)NC(=O)[C@H](CCC(N)=O)NC1=O)C(=O)N[C@@H](CC(=O)O)C(=O)N[C@@H](CCC(=O)O)C(=O)N[C@@H](CCC(=O)O)C(=O)N[C@@H](CCCNC(=N)N)C(=O)N[C@@H](C)C(=O)N3)NC(=O)[C@H](CCCNC(=N)N)NC(=O)[C@H](CC(C)C)NC(=O)CNC(=O)[C@H](CCC(=O)O)NC2=O` [compound 748], at hNav1.4 [4], the 50% inhibitory concentration (IC50) turned out to be 2150 nM and the Nav1.4/Nav1.7 was 323. Also, at hNav1.6, the Nav1.6/Nav1.7 came to 410 and the IC50 stood at 2730 nM. Also, on hNav1.7 [2] (setting [5]), the half-inhibitory concentration (IC50) amounted to 6.66 nM.

As to `C#CC[C@H](NC(=O)[C@@H](N)CCC(=O)O)C(=O)N[C@H]1CSSC[C@@H]2NC(=O)[C@@H]3CSSC[C@@H](C(=O)N[C@@H](CCCNC(=N)N)C(=O)N[C@@H](CCCCN)C(=O)N[C@@H](CCC(=O)O)C(=O)N[C@H](C(N)=O)[C@@H](C)CC)NC(=O)[C@H](Cc4c[nH]c5ccccc45)NC(=O)[C@H](CC(C)C)NC(=O)[C@H](CCCCN)NC(=O)[C@H](CSSC[C@H](NC(=O)[C@H]([C@@H](C)O)NC(=O)[C@H](Cc4c[nH]c5ccccc45)NC(=O)[C@H](CCCC)NC(=O)[C@H](Cc4c[nH]c5ccccc45)NC(=O)[C@H](CCCCN)NC(=O)[C@H](CCC(N)=O)NC1=O)C(=O)N[C@@H](CC(=O)O)C(=O)N[C@@H](CCC(=O)O)C(=O)N[C@@H](CCCCN)C(=O)N[C@@H](CCCNC(=N)N)C(=O)N[C@@H](CCC(=O)O)C(=O)N3)NC(=O)[C@H](CCCNC(=N)N)NC(=O)[C@H](CC(C)C)NC(=O)CNC(=O)[C@H](CCC(=O)O)NC2=O` [compound 750], at hNav1.4 [4], the IC50 stood at 1190 nM and the Nav1.4/Nav1.7 turned out to be 411. For the same compound, on hNav1.6, the Nav1.6/Nav1.7 is given as over 3442 and the half-maximal inhibitory concentration (IC50) is over 10000 nM. Also, the IC50 on hNav1.7 [2] (setting [5]) amounted to 2.91 nM.

As to `C#CC[C@H](N)C(=O)N[C@@H](Cc1ccc(O)cc1)C(=O)N[C@H]1CSSC[C@@H]2NC(=O)[C@@H]3CSSC[C@@H](C(=O)N[C@@H](CCCNC(=N)N)C(=O)N[C@@H](CCCCN)C(=O)N[C@@H](CCC(=O)O)C(=O)N[C@H](C(N)=O)[C@@H](C)CC)NC(=O)[C@H](Cc4c[nH]c5ccccc45)NC(=O)[C@H](CC(C)C)NC(=O)[C@H](CCCCN)NC(=O)[C@H](CSSC[C@H](NC(=O)[C@H]([C@@H](C)O)NC(=O)[C@H](Cc4c[nH]c5ccccc45)NC(=O)[C@H](CCCC)NC(=O)[C@H](CCc4ccccc4)NC(=O)[C@H](CCCCN)NC(=O)[C@H](CCC(N)=O)NC1=O)C(=O)N[C@@H](CC(=O)O)C(=O)N[C@@H](CO)C(=O)N[C@@H](CCCCN)C(=O)N[C@@H](CCCNC(=N)N)C(=O)N[C@@H](C)C(=O)N3)NC(=O)[C@H](CCCNC(=N)N)NC(=O)[C@H](CC(C)C)NC(=O)CNC(=O)[C@H](CCC(=O)O)NC2=O` [compound 844], the 50% inhibitory concentration (IC50) on hNav1.4 [4] worked out at 258 nM; on hNav1.7 [2] (setting [5]), 0.599 nM; at hNav1.7 [2] (Table 15), 0.599 nM. Further, at hNav1.4 [4], the Nav1.4/Nav1.7 worked out at 431. Further, the Nav1.6/Nav1.7 at hNav1.6 turned out to be 1666.

The values above are taken from patent publication US10344060B2 (priority 2013, dated 2019).
